Test results: the supplement of paper PMC8612539
Values after ≈ are worked out from the molar mass of the structure shown.

Key:
Enterococcus spp. = experiment: minimum inhibitory concentration (MIC)
Experimental: (§1)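 Broth microdilution MIC (Sensititre BOPO7F bovine plate, CLSI methods) of 19 antimicrobials against field isolates of P. multocida, M. haemolytica, H. somni (deep nasopharyngeal swabs) and E. coli, Enterococcus spp. (rectal swabs) from weaned dairy heifers. Incubation 16-24 h at 35 C. MIC is the lowest concentration preventing visible growth. Values with <= or > lie at the tested range limits. Trimethoprim-sulfamethoxazole is given as the trimethoprim component of a 1:19 mixture.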

Pasteurella multocida = experiment: minimum inhibitory concentration (MIC)
Experimental: as §1

C=C[C@]1(C)C[C@@H](OC(=O)CSCCN(CC)CC)[C@]2(C)[C@H](C)CC[C@]3(CCC(=O)[C@H]32)[C@@H](C)[C@@H]1O [Tiamulin]
Conditions	minimum inhibitory concentration [µg/mL]
Enterococcus spp., isolate (source animal id): 2	1 (≈ 2.03 µM)
Enterococcus spp., isolate (source animal id): 35	> 32
Enterococcus spp., isolate (source animal id): 42	> 32
Enterococcus spp., isolate (source animal id): 44	> 32
Enterococcus spp., isolate (source animal id): 79	> 32
Enterococcus spp., isolate (source animal id): 88	2 (≈ 4.05 µM)
Enterococcus spp., isolate (source animal id): 91	2 (≈ 4.05 µM)
Enterococcus spp., isolate (source animal id): 92	> 32
Enterococcus spp., isolate (source animal id): 111	2 (≈ 4.05 µM)
Enterococcus spp., isolate (source animal id): 122	> 32
Enterococcus spp., isolate (source animal id): 123	> 32
Enterococcus spp., isolate (source animal id): 133	≤ 0.5
Enterococcus spp., isolate (source animal id): 158	> 32
Enterococcus spp., isolate (source animal id): 168	1 (≈ 2.03 µM)
Enterococcus spp., isolate (source animal id): 169	1 (≈ 2.03 µM)
Enterococcus spp., isolate (source animal id): 171	> 32
Enterococcus spp., isolate (source animal id): 175	> 32
Enterococcus spp., isolate (source animal id): 177	> 32
Enterococcus spp., isolate (source animal id): 181	1 (≈ 2.03 µM)
Enterococcus spp., isolate (source animal id): 182	1 (≈ 2.03 µM)
Enterococcus spp., isolate (source animal id): 183	> 32
Enterococcus spp., isolate (source animal id): 187	1 (≈ 2.03 µM)
Enterococcus spp., isolate (source animal id): 190	1 (≈ 2.03 µM)
Enterococcus spp., isolate (source animal id): 194	> 32
Enterococcus spp., isolate (source animal id): 195	1 (≈ 2.03 µM)
Enterococcus spp., isolate (source animal id): 197	8 (≈ 16.2 µM)
Enterococcus spp., isolate (source animal id): 211	≤ 0.5
Enterococcus spp., isolate (source animal id): 214	16 (≈ 32.4 µM)
Enterococcus spp., isolate (source animal id): 222	> 32
Enterococcus spp., isolate (source animal id): 223	> 32
Enterococcus spp., isolate (source animal id): 228	≤ 0.5
Enterococcus spp., isolate (source animal id): 230	≤ 0.5
Enterococcus spp., isolate (source animal id): 235	≤ 0.5
Enterococcus spp., isolate (source animal id): 236	> 32
Enterococcus spp., isolate (source animal id): 239	2 (≈ 4.05 µM)
Enterococcus spp., isolate (source animal id): 241	≤ 0.5
Enterococcus spp., isolate (source animal id): 244	> 32
Enterococcus spp., isolate (source animal id): 246	> 32
Enterococcus spp., isolate (source animal id): 247	≤ 0.5
Enterococcus spp., isolate (source animal id): 250	> 32
Enterococcus spp., isolate (source animal id): 252	> 32
Enterococcus spp., isolate (source animal id): 268	1 (≈ 2.03 µM)
Enterococcus spp., isolate (source animal id): 282	> 32
Enterococcus spp., isolate (source animal id): 285	> 32
Enterococcus spp., isolate (source animal id): 289	> 32
Enterococcus spp., isolate (source animal id): 290	> 32
Enterococcus spp., isolate (source animal id): 296	> 32
Enterococcus spp., isolate (source animal id): 298	≤ 0.5
Enterococcus spp., isolate (source animal id): 301	32 (≈ 64.8 µM)
Enterococcus spp., isolate (source animal id): 310	> 32
Enterococcus spp., isolate (source animal id): 320	> 32
Enterococcus spp., isolate (source animal id): 331	> 32
Enterococcus spp., isolate (source animal id): 333	> 32
Enterococcus spp., isolate (source animal id): 341	> 32
Pasteurella multocida, isolate (source animal id): 10	16 (≈ 32.4 µM)
Pasteurella multocida, isolate (source animal id): 11	16 (≈ 32.4 µM)
Pasteurella multocida, isolate (source animal id): 12	16 (≈ 32.4 µM)
Pasteurella multocida, isolate (source animal id): 19	16 (≈ 32.4 µM)
Pasteurella multocida, isolate (source animal id): 23	16 (≈ 32.4 µM)
Pasteurella multocida, isolate (source animal id): 26	32 (≈ 64.8 µM)
Pasteurella multocida, isolate (source animal id): 98	32 (≈ 64.8 µM)
Pasteurella multocida, isolate (source animal id): 104	32 (≈ 64.8 µM)
Pasteurella multocida, isolate (source animal id): 115	32 (≈ 64.8 µM)
Pasteurella multocida, isolate (source animal id): 117	32 (≈ 64.8 µM)
Pasteurella multocida, isolate (source animal id): 118	32 (≈ 64.8 µM)
Pasteurella multocida, isolate (source animal id): 121	32 (≈ 64.8 µM)
Pasteurella multocida, isolate (source animal id): 124	32 (≈ 64.8 µM)
Pasteurella multocida, isolate (source animal id): 125	32 (≈ 64.8 µM)
Pasteurella multocida, isolate (source animal id): 128	32 (≈ 64.8 µM)
Pasteurella multocida, isolate (source animal id): 131	32 (≈ 64.8 µM)
Pasteurella multocida, isolate (source animal id): 135	16 (≈ 32.4 µM)
Pasteurella multocida, isolate (source animal id): 136	32 (≈ 64.8 µM)
Pasteurella multocida, isolate (source animal id): 140	32 (≈ 64.8 µM)
Pasteurella multocida, isolate (source animal id): 144	32 (≈ 64.8 µM)
Pasteurella multocida, isolate (source animal id): 146	32 (≈ 64.8 µM)
Pasteurella multocida, isolate (source animal id): 150	32 (≈ 64.8 µM)
Pasteurella multocida, isolate (source animal id): 151	32 (≈ 64.8 µM)
